# How the values were obtained:
# PDE4A5 = biological target: T1, PDE4A5 (Rattus norvegicus, UniProt P54748); assay: 5FOA growth assay in fission yeast strain expressing PDE4A5; format: cell-based; conditions: for Composite Z score, PDE4A5: high throughput 5FOA growth screen
# T1 construct: targets used in the assays are full-length proteins (as opposed to simply the catalytic domain); expressed in transfected cells; host or cells: Schizosaccharomyces pombe, PDE gene integrated in place of cgs2
# T1 sequence (P54748 1-844): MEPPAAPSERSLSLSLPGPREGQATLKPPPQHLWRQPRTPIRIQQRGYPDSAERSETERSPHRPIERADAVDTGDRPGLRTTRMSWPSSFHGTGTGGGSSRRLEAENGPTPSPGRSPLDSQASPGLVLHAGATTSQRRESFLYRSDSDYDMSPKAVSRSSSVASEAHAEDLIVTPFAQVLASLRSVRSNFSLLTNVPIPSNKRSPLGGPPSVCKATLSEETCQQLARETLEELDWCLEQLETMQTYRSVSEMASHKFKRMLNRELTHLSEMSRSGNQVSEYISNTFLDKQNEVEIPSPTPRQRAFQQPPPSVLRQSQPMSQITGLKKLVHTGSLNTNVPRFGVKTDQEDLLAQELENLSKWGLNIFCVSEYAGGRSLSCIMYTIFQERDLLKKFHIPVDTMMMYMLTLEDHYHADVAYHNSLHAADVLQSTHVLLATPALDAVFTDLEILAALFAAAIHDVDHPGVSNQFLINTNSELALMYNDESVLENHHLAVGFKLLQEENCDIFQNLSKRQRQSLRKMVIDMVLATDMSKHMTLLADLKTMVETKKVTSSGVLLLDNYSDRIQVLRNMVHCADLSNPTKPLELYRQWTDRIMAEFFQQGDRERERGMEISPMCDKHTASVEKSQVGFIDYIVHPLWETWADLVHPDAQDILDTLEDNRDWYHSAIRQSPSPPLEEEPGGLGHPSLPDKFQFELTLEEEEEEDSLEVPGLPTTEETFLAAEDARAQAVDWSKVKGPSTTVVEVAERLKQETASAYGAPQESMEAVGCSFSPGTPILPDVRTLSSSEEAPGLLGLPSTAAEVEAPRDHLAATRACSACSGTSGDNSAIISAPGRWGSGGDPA
# Protocol: High throughput drug screens were carried out at the Broad Institute's Chemical Biology Program screening facility (Broad Institute, Cambridge, Mass.). Depending upon the strain, cultures were pregrown to exponential phase in EMM complete medium containing from 0.5 to 2.5 mM cAMP to repress fbp1-ura4 transcription. Cells were collected by centrifugation, resuspended in 5FOA medium, and 25 μl were transferred to 384-well microtiter dishes (untreated, with flat clear bottoms) that had been pre-filled with 25 μl 5FOA medium and pre-pinned with 100 nl of compounds (stock solutions were generally 10 mM) from a subset of the Prestwick Bioactive and the Microsource Spectrum compound libraries. Starting cell concentrations ranged from 0.5×10^5 to 4×10^5 cells/ml depending on the screening strain. […] Other positive control dishes contained 5 mM cAMP in the 5FOA medium. Cultures were grown for 48 hours at 30° C., sealed in an airtight container with moist paper towels to prevent evaporation. Optical densities (OD600) of cultures were measured using a microplate reader. Bioinformatic analysis of the results to determine composite Z scores was performed as previously described^30, 31.
# Cells were pregrown in EMM medium [MP Biomedicals (Solon, Ohio), 3% glucose, filter-sterilized to avoid carmelization, which would introduce variability into the optical density of the medium] containing from 0 mM to 2.5 mM cAMP (or either 0.5 mM or 1.0 mM cGMP). This was to repress expression of the fbp1-ura4 reporter prior to exposure of cells to 5FOA medium. Cells were grown at 30° C. to exponential phase (approximately 10^7 cells/ml). Cells were collected by centrifugation and resuspended in 5FOA medium, and 25 μl were transferred to 384-well microtiter dishes (untreated, with flat clear bottoms) that had been pre-filled with 25 μl 5FOA medium and pre-pinned with 100 nl of compounds (stock solutions were generally 10 mM). Starting cell concentrations ranged from 0.5×10^5 to 4×10^5 cells/ml depending on the screening strain. […] Other positive control dishes contained 5 mM cAMP in the 5FOA medium for PDEs that lack appropriate control compounds. Cultures were grown for 48 hours at 30° C., sealed in an airtight container with moist paper towels to prevent evaporation. Optical densities (OD600) of cultures were measured using a microplate reader. Bioinformatic analysis of the results to determine composite Z scores was performed as previously described (1, 3).
# [1] = test system: PDE4A, PDE4B, PDE4D, PDE7A, PDE7B, PDE8A, PDE3A; assay: Summary of PDE inhibitor profile; design: key to PDE inhibitor profile (Table 17): (1): Strong PDE4A, PDE4B inhibitor; (2): Strong PDE4A inhibitor; (3): Strong PDE4B, moderate PDE4A inhibitor; (4): Moderate PDE4A, PDE4B inhibitor; (5): Moderate PDE4B inhibitor; key to inhibitor class, Table 15: (1): Strong PDE4A5 inhibitor; (2): Strong PDE4A, 4B inhibitor; Moderate PDE4D inhibitor; (3): Strong PDE4A. 4B inhibitor; (4): Strong PDE4A, 4B, PDE7A inhibitor: Weak PDE4D inhibitor; conditions: for PDE inhibitor profile (Table 17): overall classification, Table 17 footnotes
smiles,measurement,setting,value
"COC(=O)C1=C(C)N(c2ccc(C(C)C)cc2)C(=O)/C1=C\c1ccco1 [2008, 019]",1 Assay (20 uM) 4A5,PDE4A5,1.73 ND ND ND ND
same,"inhibitor class, Table 15",[1],"2008, 019 (1)"
"COC(=O)C1/C(=C/c2cccc(OC)c2O)C(=O)N(c2ccccc2F)C1C (centres unmarked) [2008, C21]",1 Assay (20 uM) 4A5,PDE4A5,1.80 ND ND ND ND
same,"inhibitor class, Table 15",[1],"2008, C21 (2)"
"COC(=O)C1=C(C)N(c2ccccc2)/C(=C/c2cccs2)C1=O [2008, K19]",1 Assay (20 uM) 4A5,PDE4A5,0.06 ND ND ND ND
same,"inhibitor class, Table 15",[1],"2008, K19 (1)"
"CCCCn1c2ccccc2c2nc3ccccc3nc21 [2013, I20]",1 Assay (20 uM) 4A5,PDE4A5; PDE 4A5,71.82 ND ND ND ND
same,PDE inhibitor profile (Table 17),[1],"2013, I20 (1)"
"CC(C)Cn1c2ccc(Br)cc2c2nc3ccccc3nc21 [2015, L04]",1 Assay (20 uM) 4A5,PDE4A5; PDE 4A5,57.60 ND ND ND ND
same,PDE inhibitor profile (Table 17),[1],"2015, L04 (1)"
"CCc1ccc2c(c1)c1nc3ccccc3nc1n2CC [2015, P06]",1 Assay (20 uM) 4A5,PDE4A5; PDE 4A5,51.82 ND ND ND ND
same,PDE inhibitor profile (Table 17),[1],"2015, P06 (4)"
"C=CCn1c2ccc(Br)cc2c2nc3ccccc3nc21 [2017, C18]",1 Assay (20 uM) 4A5,PDE4A5; PDE 4A5,69.70 ND ND ND ND
same,PDE inhibitor profile (Table 17),[1],"2017, C18 (4)"
"c1ccc(CCn2c3ccccc3c3nc4ccccc4nc32)cc1 [2019, G03]",1 Assay (20 uM) 4A5,PDE4A5; PDE 4A5,49.61 ND ND ND ND
same,PDE inhibitor profile (Table 17),[1],"2019, G03 (4)"
"C=Cn1c2ccccc2c2nc3ccccc3nc21 [2033, H06]",1 Assay (20 uM) 4A5,PDE4A5; PDE 4A5,66.58 ND ND ND ND
same,PDE inhibitor profile (Table 17),[1],"2033, H06 (4)"
COc1ccccc1CNC(=O)c1sc2ncnc(N3CCN(c4ccccc4F)CC3)c2c1C [2041 E21],"Composite Z score, PDE4A5",PDE4A5,2.4446
CNc1nc(=S)[nH]c2sc3c(c12)CCCC3 [2054 E08],"Composite Z score, PDE4A5",PDE4A5,−0.378
CC1CC(=O)N(c2ncnc3sc4c(c23)CCCC4)N1 (centres unmarked) [2054 E16],"Composite Z score, PDE4A5",PDE4A5,0.5516
Cc1ccc2c(c1)c1nc3ccccc3nc1n2C(C)C [Compound 41],1 Assay (20 uM) 4A5,PDE4A5; PDE 4A5,84.08
same,PDE inhibitor profile (Table 17),[1],41 (1)
Cc1c(C(=O)Nc2ccc(F)cc2F)sc2ncnc(N(C)c3ccccc3)c12 [Compound 58-9],"Composite Z score, PDE4A5",PDE4A5,111.95
c1csc(CCNc2ncnc3sc4c(c23)CCC4)c1 [Compound 2005M12],"Composite Z score, PDE4A5",PDE4A5,−0.574
CCOC(=O)c1sc2nc(C)nc(N3CCC(C)CC3)c2c1C [Compound 2007D06],"Composite Z score, PDE4A5",PDE4A5,−10.3
CCCCN(CC)C(=O)c1sc2ncnc(N3CCN(c4ccc(OC)cc4)CC3)c2c1C [Compound 2007H06],"Composite Z score, PDE4A5",PDE4A5,−10.26
CCOC(=O)c1sc2nc(C)nc(N(C)Cc3ccccc3)c2c1C [Compound 2007L04],"Composite Z score, PDE4A5",PDE4A5,13.196
Cc1nc(NCCc2ccccc2)c2c3c(sc2n1)CCCC3 [Compound 2008G09],"Composite Z score, PDE4A5",PDE4A5,−4.881
O=C(/C=C/c1ccccc1)Nc1ncnc2sc3c(c12)CCC3 [Compound 2008K11],"Composite Z score, PDE4A5",PDE4A5,−4.329
COc1ccc(CCNc2ncnc3sc4c(c23)CCCC4)cc1 [Compound 2012B19],"Composite Z score, PDE4A5",PDE4A5,20.422
O=C(Nc1ncnc2sc3c(c12)CCCCC3)c1ccc(F)cc1 [Compound 2012F09],"Composite Z score, PDE4A5",PDE4A5,26.878
CC(C)CC(Nc1ncnc2sc3c(c12)CCC3)C(=O)O (centres unmarked) [Compound 2012H20],"Composite Z score, PDE4A5",PDE4A5,−0.102
Cc1cc(C)c(C)c(S(=O)(=O)N2CCN(c3ncnc4sc5c(c34)CCCC5)CC2)c1C [Compound 2012L13],"Composite Z score, PDE4A5",PDE4A5,−0.334
O=C(O)CCNc1ncnc2sc3c(c12)CCCC3 [Compound 2012O16],"Composite Z score, PDE4A5",PDE4A5,0.289
CCOC(CNc1nc(C)nc2sc3c(c12)CCCC3)OCC [Compound 2040D04],"Composite Z score, PDE4A5",PDE4A5,−0.897
CCOC(=O)c1sc2nc(Cc3ccccc3)nc(NCCC3CCCCC3)c2c1C [Compound 2040F07],"Composite Z score, PDE4A5",PDE4A5,2.5342
Cc1nc(N2CCCCC2)c2c(C)c(C(=O)Nc3cccc(C(F)(F)F)c3)sc2n1 [Compound 2040F10],"Composite Z score, PDE4A5",PDE4A5,1.7466
Cc1c(C(=O)NCCC(C)C)sc2ncnc(N3CCOCC3)c12 [Compound 2040F13],"Composite Z score, PDE4A5",PDE4A5,−0.722
Cc1c(C(=O)NCCC2CCCCC2)sc2ncnc(N3CCCCC3C)c12 (centres unmarked) [Compound 2040H10],"Composite Z score, PDE4A5",PDE4A5,3.411
COc1cc(OC)c(NC(=O)c2sc3ncnc(N4CCCCC4C)c3c2C)cc1Cl (centres unmarked) [Compound 2040J10],"Composite Z score, PDE4A5",PDE4A5,0.4891
CCN(CC)c1ncnc2sc(C(=O)N(C)C3CCCCC3)c(C)c12 [Compound 2040J12],"Composite Z score, PDE4A5",PDE4A5,−0.227
CCN(CC)c1nc(C)nc2sc(C(=O)Nc3cc(Cl)ccc3OC)c(C)c12 [Compound 2040L12],"Composite Z score, PDE4A5",PDE4A5,0.9752
Cc1nc(N2CCC(C)CC2)c2c(C)c(C(=O)N3CCN(c4ccc(F)cc4)CC3)sc2n1 [Compound 2040N10],"Composite Z score, PDE4A5",PDE4A5,1.3723
CCN(CC)c1nc(C)nc2sc(C(=O)N3CCCCCC3)c(C)c12 [Compound 2040N12],"Composite Z score, PDE4A5",PDE4A5,−0.705
CCOC(=O)c1ccccc1NC(=O)c1sc2nc(C)nc(N(CC)CC)c2c1C [Compound 2040P12],"Composite Z score, PDE4A5",PDE4A5,1.3091
Cc1c(C(=O)N(C)Cc2ccccc2)sc2ncnc(N3CCN(c4ccccc4)CC3)c12 [Compound 2041G21],"Composite Z score, PDE4A5",PDE4A5,0.7964
COc1ccc(NC(=O)c2sc3nc(C)nc(N(C)c4ccc(C(C)C)cc4)c3c2C)c(OC)c1 [Compound 2041I04],"Composite Z score, PDE4A5",PDE4A5,1.1627
Cc1c(C(=O)N2CCCCCC2)sc2ncnc(N3CCN(c4ccccc4)CC3)c12 [Compound 2041I21],"Composite Z score, PDE4A5",PDE4A5,−0.939
CCC(C)NC(=O)c1sc2nc(C)nc(N(C)c3ccc(C(C)C)cc3)c2c1C (centres unmarked) [Compound 2041K04],"Composite Z score, PDE4A5",PDE4A5,10.539
COc1cccc(NC(=O)c2sc3ncnc(N4CCc5ccccc5C4)c3c2C)c1 [Compound 2041K21],"Composite Z score, PDE4A5",PDE4A5,33.878
OCCNc1ncnc2sc3c(c12)CCCC3 [Compound 2051H22],"Composite Z score, PDE4A5",PDE4A5,2.0846
c1nc(NCCCN2CCOCC2)c2c3c(sc2n1)CCCC3 [Compound 2051N22],"Composite Z score, PDE4A5",PDE4A5,−4.733
CCNc1nc(SCC(=O)OCC)nc2sc3c(c12)CCC(C)C3 (centres unmarked) [Compound 2053H16],"Composite Z score, PDE4A5",PDE4A5,−0.22
CCNc1nc(SCC(=O)NC(=O)NCc2ccccc2)nc2sc3c(c12)CCN(C)C3 [Compound 2054N05],"Composite Z score, PDE4A5",PDE4A5,1.0728
CCNc1nc(SCc2ccc(Cl)cc2)nc2sc3c(c12)CCN(C)C3 [Compound 2054P05],"Composite Z score, PDE4A5",PDE4A5,1.0025

# From patent US20100227853A1, “INHIBITORS OF CYCLIC AMP PHOSPHODIESTERASES” (Trustees of Boston College, priority 2008, published 2010)
